Test results: PMC3190963 (Journal of structural biology, 2011)

Molecular target: human UPP1 (hUPP1) (Homo sapiens, UniProt Q16831)
Assay: absorbance change at […] nm, uridine to uracil
Format: biochemical
Settings: uridine and inorganic phosphate; reference for hUPP2 activity

human UPP1 (hUPP1), sequence (Q16831 whole entry): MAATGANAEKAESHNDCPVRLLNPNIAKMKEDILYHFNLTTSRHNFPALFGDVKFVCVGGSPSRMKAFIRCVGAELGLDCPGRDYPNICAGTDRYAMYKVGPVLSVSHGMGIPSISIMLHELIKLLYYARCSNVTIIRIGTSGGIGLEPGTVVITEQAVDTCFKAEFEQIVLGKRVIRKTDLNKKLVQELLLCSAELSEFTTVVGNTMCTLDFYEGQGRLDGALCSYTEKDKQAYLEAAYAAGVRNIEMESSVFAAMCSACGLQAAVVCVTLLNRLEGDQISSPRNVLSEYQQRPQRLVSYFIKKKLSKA

O=c1ccn([C@@H]2O[C@H](CO)[C@@H](O)[C@H]2O)c(=O)[nH]1 [uridine]
absorbance change at 280 nm, uridine to uracil: in vitro activity of recombinant hUPP2 and hUPP1 was compared
